The conditions of the data set: rat, in vivo. The method, then: Non self-emulsifying tocotrienol oily suspension was prepared by mixing tocotrienols rich fraction (TRF) and palm olein at a ratio of 1:1. The total tocotrienol administered per rat was equivalent to 10 mg/kg body weight. The single dose of ketoconazole (suspension in water) was administered at a dose of 32 mg/kg body weight.
The rats were fasted overnight for at least 12 hours before the study. During Phase 1, the rats in Group 1 were given only the tocotrienol oily suspension while Group 2 were given a single dose of ketoconazole half an hour prior to administration of tocotrienol. Phase 2 was carried out after 1 week of wash-out period. Blood samples were taken from the tail vein according to the following predetermined sampling interval. The blood levels of individual tocotrienol isomers at each time point was analysed using HPLC assay.

Consider one compound from patent publication US20240252464A1, “A SELF-EMULSIFYING DRUG DELIVERY FORMULATION WITH IMPROVED ORAL BIOAVAILABILITY OF LIPOPHILIC COMPOUND” (Avantsar Sdn Bhd, priority 2022, published 2024).

Consider `CC(=O)N1CCN(c2ccc(OCC3COC(Cn4ccnc4)(c4ccc(Cl)cc4Cl)O3)cc2)CC1` (stereo not shown) [Ketoconazole, ketoconazole], for which the “Increase in bioavailability compared with Control, Alpha-tocotrienol” value is reported as 2.1-fold; the “Increase in bioavailability compared with Control, Delta-tocotrienol” value is recorded as 2.6-fold; the “Increase in bioavailability compared with Control, Gamma-tocotrienol” value is 3.0-fold. Also, the “Enhancement of bioavailability of tocotrienols compared to without ketoconazole” value (po) is 2-3 folds.
